In article PMC4210147, “Sequence-Specific Dimerization of a Transmembrane Helix in Amphipol A8-35” (PLoS ONE, 2014):
Entries after “also recorded” stand apart in the source; their conditions may differ. No end group written: not given here.

Columns and labels:
[1] = Isothermal titration calorimetry, SDS demicellization in presence of A8-35; assay type: physicochemical; conditions: 25°C, 10 mM phosphate, 150 mM NaCl, pH 7.4
Procedure: ITC experiments were performed on a VP-ITC (GE Healthcare) at 25°C in 10 mM phosphate buffer (150 mM NaCl, pH 7.4). For demicellization experiments, 5-µL aliquots containing both, SDS at a concentration well above its CMC (10-13 mM) as well as A8-35 at concentrations of 5-140 µM, were injected into the sample cell containing the same amphipol concentration but no SDS. Time spans between injections were chosen long enough to allow for complete re-equilibration. Baseline subtraction and peak integration were accomplished using NITPIC [32], and the resulting isotherms were analyzed by nonlinear least-squares fitting in a spreadsheet program.
Thermal denaturation of MPs often leads to irreversible aggregation of the MP, and guanidine hydrochloride and urea, which are frequently used in unfolding studies involving soluble proteins, do typically not denature the TM regions of MPs. This is why the thermodynamic stability of integral MPs within membrane-mimetic systems is often assessed by titrating increasing concentrations of the anionic detergent SDS to MPs dissolved in a mild detergent, such as DDM [24], [40]-[44]. […] At low APol concentrations, the isotherms thus obtained resembled those measured in SDS demicellization experiments in the absence of APol. […]
Figure 5 Interactions of SDS with A8-35 monitored by isothermal titration calorimetry. […]

[2] = octylglucoside with A8-35 and other amphipols; ref [13]; cited from earlier work
[3] = target: the molecule itself; experiment: FRET or BRET; steady-state FRET at 0.5 µM peptide and 20 µM A8-35 (40:1) with increasing SDS added to preformed APol/GpA complexes; 25°C after incubation at 37°C; apparent constants; dimer to monomers
[4] = target: the molecule itself; experiment: FRET or BRET; energy transfer at different acceptor mole ratios at constant total peptide concentration, in 5 µM and 50 µM A8-35
[5] = target: the molecule itself; experiment: FRET or BRET; steady-state FRET of FL- and TAMRA-labelled peptide (0.25 µM each, 0.5 µM total) in Amphipol A8-35 at 5 to 75 µM; 10 mM HEPES pH 7.4, 150 mM NaCl; 25°C; apparent constants; dimer to monomers

## CCCCCCCCCCCCOS(=O)(=O)[O-].[Na+] [SDS, sodium dodecyl sulfate]
[1]; qualitative
  mixing behavior of SDS with A8-35: follows a more complex pattern; also recorded: strongly non-ideal
[1]; regular mixing model, intermediate SDS contents, A8-35 5-140 µM
  nonideality parameters of SDS/A8-35 mixing: 3–4 RT

## CCCCCCCCO[C@@H]1O[C@H](CO)[C@@H](O)[C@H](O)[C@H]1O [octylglucoside]
[2]
  mixing behavior with amphipols: nearly ideal mixing behavior

B1: GpA TM domain peptide (residues 69–101 of human glycophorin A) (peptide)
peptide: SEPEITLIIFGVMAGVIGTILLISYGIRRLIKK
modifications: also: N-terminal label: fluorescein or TAMRA
notes: glycophorin A, human, transmembrane domain, residues 69-101; Self-association is measured by FRET between the FL-labelled and the TAMRA-labelled copy of the same peptide, mixed in equal concentrations (0.25 µM each); both are written as one molecule; also called GpA TM peptide; GpA TM helix; source: synthetic peptide (custom-synthesized, Peptide Specialty Laboratories, Heidelberg)
[3]
  fold increase of KD (SDS exceeding 1.5 mM against no SDS): ~10 fold
[4]
  stoichiometry N: 2
[5]
  Kd: < 300 nM
